This experiment has as its target T1, human indoleamine 2,3-dioxygenase 1 (hIDO1) (Homo sapiens, UniProt P14902).
T1 construct: gene IDO1; full-length hIDO1
The experiment in a line: electrochemical inhibition assay (voltammetry, purified hIDO1 immobilized on nanoporous gold electrode, with O2 and Trp). The experiment is classed as biochemical.

T1 sequence (P14902 whole entry): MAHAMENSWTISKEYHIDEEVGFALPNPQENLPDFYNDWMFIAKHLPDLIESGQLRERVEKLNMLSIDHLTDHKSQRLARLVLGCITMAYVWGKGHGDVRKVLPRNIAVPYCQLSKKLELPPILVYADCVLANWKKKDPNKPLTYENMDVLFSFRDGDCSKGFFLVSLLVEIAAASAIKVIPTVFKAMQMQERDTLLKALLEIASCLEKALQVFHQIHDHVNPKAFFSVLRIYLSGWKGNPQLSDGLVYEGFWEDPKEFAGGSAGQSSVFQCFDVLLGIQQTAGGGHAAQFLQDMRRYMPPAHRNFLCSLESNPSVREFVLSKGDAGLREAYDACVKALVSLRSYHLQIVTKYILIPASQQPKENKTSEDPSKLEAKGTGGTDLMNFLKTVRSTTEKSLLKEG

Usually IC50 stands for the point on the concentration scale where inhibition reaches its midpoint. A higher IC50 goes with a need for much substance. `CC(C)(C)c1nc(CN2CCN(CC(O)c3ccccc3)CC2)no1` (racemic) [MTS-7, 2-(4-{[5-(2-methyl-2-propanyl)-1,2,4-oxadiazol-3-yl]methyl}-1-piperazinyl)-1-phenylethanol]: the IC50 was ~10 nM.
